Assay results published in ChEMBL document CHEMBL3621199, “Structure-based approaches towards identification of fragments for the low-druggability ATAD2 bromodomain” (Medchemcomm, 2014).

What follows are compounds tested against T1, ATPase family AAA domain-containing protein 2 (Homo sapiens, UniProt Q6PL18) (assay: Binding affinity to recombinant human ATAD2 (982 to 1108 amino acids) bromodomain […] at methyl groups of leucine, valine, isoleucine, methionine expressed in Escherichia coli BL21 (DE3) by NMR titration).
T1 sequence (Q6PL18 whole entry): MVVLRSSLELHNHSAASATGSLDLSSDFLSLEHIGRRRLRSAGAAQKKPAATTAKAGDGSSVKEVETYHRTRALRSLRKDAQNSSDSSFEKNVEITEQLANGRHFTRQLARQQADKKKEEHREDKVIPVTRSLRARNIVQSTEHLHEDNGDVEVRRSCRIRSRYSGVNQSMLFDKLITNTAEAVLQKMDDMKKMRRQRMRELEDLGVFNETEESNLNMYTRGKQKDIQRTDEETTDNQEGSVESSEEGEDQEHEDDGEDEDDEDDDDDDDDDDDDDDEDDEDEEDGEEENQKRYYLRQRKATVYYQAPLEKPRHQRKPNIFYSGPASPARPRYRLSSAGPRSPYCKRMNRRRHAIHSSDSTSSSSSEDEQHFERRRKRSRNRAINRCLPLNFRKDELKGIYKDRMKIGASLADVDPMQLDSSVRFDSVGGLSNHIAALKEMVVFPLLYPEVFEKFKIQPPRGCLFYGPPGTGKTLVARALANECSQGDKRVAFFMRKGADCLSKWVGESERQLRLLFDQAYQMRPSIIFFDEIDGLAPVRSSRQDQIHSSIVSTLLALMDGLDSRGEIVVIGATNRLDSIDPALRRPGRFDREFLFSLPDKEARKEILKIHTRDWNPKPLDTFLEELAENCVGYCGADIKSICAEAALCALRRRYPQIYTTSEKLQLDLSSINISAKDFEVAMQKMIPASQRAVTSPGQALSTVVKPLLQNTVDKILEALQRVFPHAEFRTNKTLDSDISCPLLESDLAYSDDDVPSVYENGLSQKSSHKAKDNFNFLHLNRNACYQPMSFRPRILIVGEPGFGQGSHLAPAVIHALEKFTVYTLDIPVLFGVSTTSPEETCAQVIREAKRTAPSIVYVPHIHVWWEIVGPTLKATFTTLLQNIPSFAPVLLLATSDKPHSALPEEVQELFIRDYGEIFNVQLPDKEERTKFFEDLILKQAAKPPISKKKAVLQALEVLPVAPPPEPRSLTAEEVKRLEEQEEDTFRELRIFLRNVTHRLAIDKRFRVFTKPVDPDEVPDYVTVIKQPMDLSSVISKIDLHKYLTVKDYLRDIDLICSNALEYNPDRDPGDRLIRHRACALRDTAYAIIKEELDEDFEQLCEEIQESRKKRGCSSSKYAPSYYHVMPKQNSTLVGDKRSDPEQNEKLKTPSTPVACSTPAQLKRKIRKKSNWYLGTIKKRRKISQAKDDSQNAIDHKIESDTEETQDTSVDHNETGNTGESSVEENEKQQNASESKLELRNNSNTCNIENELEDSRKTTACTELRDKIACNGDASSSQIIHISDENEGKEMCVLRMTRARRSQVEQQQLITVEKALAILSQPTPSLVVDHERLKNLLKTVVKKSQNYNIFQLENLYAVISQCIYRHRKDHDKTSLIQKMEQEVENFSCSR

| Kd | Compound |
| --- | --- |
| 21 mM | Cc1cn([C@@H]2O[C@H](CO)[C@@H](O)[C@H]2O)c(=O)[nH]c1=O |
| 17 mM | Cc1cn([C@@H]2O[C@H](CN)[C@@H](O)[C@H]2O)c(=O)[nH]c1=O |
| 18 mM | Cc1cn([C@H]2CC[C@@H](CO)O2)c(=O)[nH]c1=O |
| 10 mM | Cc1c[nH]c(=O)[nH]c1=O [THYMINE] |

| Compound | Kd |
| --- | --- |
| Cc1cn([C@H]2C[C@H](O)[C@@H](CO)O2)c(=O)[nH]c1=O [DOXRIBTIMINE] | 10 mM |
